Columns and labels:
Trachea [1] = assay: Inhibition of Ach-induced contraction in Sprague-Dawley rat trachea assessed as tracheal tension at 10^-4 mol/L (reference value: 0.63 to 0.98 g); format: functional
Trachea [2] = assay: Inhibition of Ach-induced contraction in Sprague-Dawley rat trachea assessed as tracheal tension at 10^-7 mol/L (reference value: 0.63 to 0.98 g); format: functional
Trachea [3] = assay: Inhibition of Ach-induced contraction in Sprague-Dawley rat trachea at 1 to 100 umol/L; format: functional, tissue-based; details: read-out: pA2 (converted)
Trachea [4] = assay: Inhibition of KCl-induced contraction in Sprague-Dawley rat trachea assessed as tracheal tension at 10^-4 mol/L (reference value: 2.16 to 2.59 g); format: functional
Trachea [5] = assay: Inhibition of KCl-induced contraction in Sprague-Dawley rat trachea assessed as maximal diastolic rate at 10^-9 mol/L (reference value: 5.9 +/- 1.8%); format: functional; set-up: scale not given: the % may be the effect or the level left
Trachea [6] = assay: Inhibition of KCl-induced contraction in Sprague-Dawley rat trachea assessed as tracheal tension at 10^-6 mol/L (reference value: 2.16 to 2.59 g); format: functional
Trachea [7] = assay: Inhibition of Ach-induced contraction in Sprague-Dawley rat trachea assessed as maximal diastolic rate at 10^-6 mol/L (reference value: 15.9 +/- 3%); format: functional; set-up: scale not given: the % may be the effect or the level left
Trachea [8] = assay: Inhibition of KCl-induced contraction in Sprague-Dawley rat trachea assessed as maximal diastolic rate at 10^-5 mol/L (reference value: 6 +/- 0.6%); format: functional; set-up: scale not given: the % may be the effect or the level left
Trachea [9] = assay: Inhibition of KCl-induced contraction in Sprague-Dawley rat trachea assessed as tracheal tension at 10^-7 mol/L (reference value: 2.16 to 2.59 g); format: functional
Trachea [10] = assay: Inhibition of KCl-induced contraction in Sprague-Dawley rat trachea assessed as tracheal tension at 10^-9 mol/L (reference value: 2.16 to 2.59 g); format: functional
Trachea [11] = assay: Inhibition of KCl-induced contraction in Sprague-Dawley rat trachea assessed as maximal diastolic rate at 10^-6 mol/L (reference value: 6 +/- 1.2%); format: functional; set-up: scale not given: the % may be the effect or the level left
Trachea [12] = assay: Inhibition of Ach-induced contraction in Sprague-Dawley rat trachea assessed as maximal diastolic rate at 10^-5 mol/L (reference value: 15.9 +/- 2.6%); format: functional; set-up: scale not given: the % may be the effect or the level left
Trachea [13] = assay: Inhibition of Ach-induced contraction in Sprague-Dawley rat trachea assessed as maximal diastolic rate at 10^-9 mol/L (reference value: 12.7 +/- 2.8%); format: functional; set-up: scale not given: the % may be the effect or the level left
Trachea [14] = assay: Inhibition of Ach-induced contraction in Sprague-Dawley rat trachea assessed as tracheal tension at 10^-6 mol/L (reference value: 0.63 to 0.98 g); format: functional
Trachea [15] = assay: Inhibition of Ach-induced contraction in Sprague-Dawley rat trachea assessed as tracheal tension at 10^-5 mol/L (reference value: 0.63 to 0.98 g); format: functional
Trachea [16] = assay: Inhibition of Ach-induced contraction in Sprague-Dawley rat trachea; format: functional, tissue-based
Trachea [17] = assay: Inhibition of KCl-induced contraction in Sprague-Dawley rat trachea assessed as tracheal tension at 10^-8 mol/L (reference value: 2.16 to 2.59 g); format: functional
Trachea [18] = assay: Inhibition of Ach-induced contraction in Sprague-Dawley rat trachea assessed as maximal diastolic rate at 10^-7 mol/L (reference value: 14.2 +/- 2.3%); format: functional; set-up: scale not given: the % may be the effect or the level left
Trachea [19] = assay: Inhibition of Ach-induced contraction in Sprague-Dawley rat trachea assessed as maximal diastolic rate at 10^-8 mol/L (reference value: 14 +/- 1.8%); format: functional; set-up: scale not given: the % may be the effect or the level left
Trachea [20] = assay: Inhibition of KCl-induced contraction in Sprague-Dawley rat trachea assessed as maximal diastolic rate at 10^-7 mol/L (reference value: 7 +/- 0.8%); format: functional; set-up: scale not given: the % may be the effect or the level left
Trachea [21] = assay: Inhibition of Ach-induced contraction in Sprague-Dawley rat trachea assessed as maximal diastolic rate at 10^-4 mol/L (reference value: 15 +/- 4.2%); format: functional; set-up: scale not given: the % may be the effect or the level left
Trachea [22] = assay: Inhibition of Ach-induced contraction in Sprague-Dawley rat trachea assessed as tracheal tension at 10^-8 mol/L (reference value: 0.63 to 0.98 g); format: functional
Trachea [23] = assay: Inhibition of Ach-induced contraction in Sprague-Dawley rat trachea assessed as tracheal tension at 10^-9 mol/L (reference value: 0.63 to 0.98g); format: functional
Trachea [24] = assay: Inhibition of KCl-induced contraction in Sprague-Dawley rat trachea assessed as tracheal tension at 10^-5 mol/L (reference value: 2.16 to 2.59 g); format: functional
Trachea [25] = assay: Inhibition of KCl-induced contraction in Sprague-Dawley rat trachea assessed as maximal diastolic rate at 10^-8 mol/L (reference value: 7 +/- 0.3%); format: functional; set-up: scale not given: the % may be the effect or the level left
Trachea [26] = assay: Inhibition of KCl-induced contraction in Sprague-Dawley rat trachea assessed as maximal diastolic rate at 10^-4 mol/L (reference value: 6.6 +/- 0.3%); format: functional; set-up: scale not given: the % may be the effect or the level left

| SMILES | Activity (Trachea [1]) [g] | Activity (Trachea [2]) [g] | Kb (Trachea [3]) [nM] | Activity (Trachea [4]) [g] | Activity (Trachea [5]) [%] | Activity (Trachea [6]) [g] | Activity (Trachea [7]) [%] | Activity (Trachea [8]) [%] | Activity (Trachea [9]) [g] | Activity (Trachea [10]) [g] | Activity (Trachea [11]) [%] | Activity (Trachea [12]) [%] | Activity (Trachea [13]) [%] | Activity (Trachea [14]) [g] | Activity (Trachea [15]) [g] | EC50 (Trachea [16]) [µM] | Activity (Trachea [17]) [g] | Activity (Trachea [18]) [%] | Activity (Trachea [19]) [%] | Activity (Trachea [20]) [%] | further results |
| --- | --- | --- | --- | --- | --- | --- | --- | --- | --- | --- | --- | --- | --- | --- | --- | --- | --- | --- | --- | --- | --- |
| C[C@H]1CC[C@H]2N(C1)C[C@H]1[C@@H]3C[C@H]4[C@@H](CC(=O)[C@H]5C[C@@H](O[C@@H]6O[C@H](CO)[C@@H](O)[C@H](O)[C@H]6O)CC[C@@]54C)[C@@H]3CC[C@@H]1[C@@]2(C)O | 0.84 | 0.83 | 2630 | 2.33 | 7.8 | 2.34 | 15 | 6.4 | 2.36 | 2.33 | 7.5 | 15.9 | 12.2 | 0.84 | 0.83 | 3 | 2.37 | 14.9 | 13.8 | 6.4 | Activity (Trachea [21]): 15.6%; Activity (Trachea [22]): 0.84 g; Activity (Trachea [23]): 0.85 g; Activity (Trachea [24]): 2.37 g; Activity (Trachea [25]): 6.2%; Activity (Trachea [26]): 8.3% |
| C[C@H]1CC[C@@H]2N(C1)C[C@H]1[C@@H]3C[C@H]4[C@@H](CC(=O)[C@H]5C[C@@H](O)CC[C@@]54C)[C@@H]3CC[C@H]1[C@]2(C)O [IMPERIALINE] | 0.48 | 0.52 | 3.89 | 2.41 | 5.7 | 2.43 | 40.4 | 6.8 | 2.44 | 2.44 | 6.4 | 45.7 | 14.5 | 0.5 | 0.49 | 4.4 | 2.43 | 35.3 | 28.1 | 6 | Activity (Trachea [21]): 50.7%; Activity (Trachea [22]): 0.55 g; Activity (Trachea [23]): 0.58 g; Activity (Trachea [24]): 2.42 g; Activity (Trachea [25]): 6.3%; Activity (Trachea [26]): 7.2% |
